System: human dermal fibroblast cells
Type: cell-based
Details: 24 h
Experimental: Primary dermal fibroblasts cells of human origin were cultured in vitro using standard conditions (37° C., 95% v/v air, 5% v/v CO2). Primary dermal fibroblasts from neonatal donor were used from human origin and purchased from Thermo-Fisher (Cat No. […]). […] Cells were cultured until the second passage and then acclimated for 48 hours before UVA irradiation and dosing procedures conducted in 24-well plates. On Day 3, test materials were dosed to cell culture media and pre-incubated for 6 hours. Treatment media was then removed and replaced with phosphate buffer saline (PBS) without test materials and Ultraviolet-A (UV-A) was irradiated at 12.5 J/cm^2 using FS-20/T-12 bulbs (315-400 nm). After UV-A irradiation, PBS was replaced with fresh DMEM medium with test materials and incubated for 18 hours at standard culture conditions. After incubation, culture medium supernatants were harvested and used to measure human IL-6 levels by ELISA method. In vitro dosing route was selected to test the activity of KLS-13022 after pro-inflammatory inducer UV-A irradiation, since isolated human cell culture provide direct activity indication and specific cell-type effects. Human cells were selected as relevant to cell types within skin tissues for this development program. […] Absorbance was measured at 490 nm using plate reader and cell viability was calculated as a percent of control. […]

`C=C(C)[C@@H]1CCC(C)=C[C@H]1c1c(O)cc(CC2CN(C(=O)OCC)C2)cc1O` [KLS-13022, ethyl 3-(3,5-dihydroxy-4-((1R,6R)-3-methyl-6-(prop-1-en-2-yl)cyclohex-2-enyl)benzyl)azetidine-1-carboxylate] showed a non-toxic concentration range of no more than 1.67 µM and a toxic concentration of 3.3 µM.
